Ten compounds from ChEMBL document CHEMBL4715849, “Recent Progress in the Discovery of Antifungal Agents Targeting the Cell Wall” (J Med Chem, 2020) can be followed below.

The nature of series [1]: Inhibition of Candida albicans GFA1 using D-Fru6P and L-glutamine as substrate by absorbance method.
Series [2] concerns Candida albicans. The series is described as follows: Antifungal activity against Candida albicans ATCC 10231 by CLSI-based serial dilution method. It is filed as functional.
Series [3] in a line: Inhibition of Candida albicans GFA1 using D-Fru6P and L-glutamine as substrate incubated for 30 mins by Elson-Morgan method.
The test system of series [4] is Nakaseomyces glabratus. The series is described as follows: Antifungal activity against Candida glabrata DSM 11226 by CLSI-based serial dilution method. In kind it is functional.
A short description of series [5]: Antifungal activity against Candida arborea KKP319 by CLSI-based serial dilution method. It is filed as functional.
The subject of series [6] is Pichia kudriavzevii. The series is described as follows: Antifungal activity against Candida krusei DSM 6128 by CLSI-based serial dilution method. In kind it is functional.
The test system of series [7] is Candida albicans. The series is described as follows: Antifungal activity against Candida albicans K335 by agar incorporation method. In kind it is functional.
For series [8], the system named is Candida albicans. The series is described as follows: Antifungal activity against Candida albicans K341 by agar incorporation method. It is filed as functional.
Series [9] relates to Candida albicans. The series is described as follows: Antifungal activity against Candida albicans K1082 by agar incorporation method. It is filed as functional.
The test system of series [10] is Candida albicans. The series is described as follows: Antifungal activity against Candida albicans K1133 by agar incorporation method. In kind it is functional.
The test system of series [11] is Meyerozyma guilliermondii. The series is described as follows: Antifungal activity against Candida guilliermondii K334 by agar incorporation method. It is filed as functional.
Series [12] concerns Candida tropicalis. The series is described as follows: Antifungal activity against Candida tropicalis K337 by agar incorporation method. It is filed as functional.
Series [13] relates to Candida tropicalis. The series is described as follows: Antifungal activity against Candida tropicalis K1155 by agar incorporation method. It is filed as functional.
Series [14] deals with Candida parapsilosis. The series is described as follows: Antifungal activity against Candida parapsilosis K332 by agar incorporation method. In kind it is functional. The following applies: Lodderomyces parapsilosis.
The subject of series [15] is Candida parapsilosis. The series is described as follows: Antifungal activity against Candida parapsilosis K1154 by agar incorporation method. The following applies: Lodderomyces parapsilosis. It is filed as functional.
A further series has as its system Cyberlindnera jadinii. The series is described as follows: Antifungal activity against Candida utilis K482 by agar incorporation method. In kind it is functional. The note with it: Williopsis jadinii.
The test system of series [16] is Pichia kudriavzevii. The series is described as follows: Antifungal activity against Candida krusei K1153 by agar incorporation method. In kind it is functional.
Series [17] is described as follows: Inhibition of Beta-1,3-glucan synthase in wild type Schizosaccharomyces pombe.
A short description of series [18]: Inhibition of Beta-1,3-glucan synthase in Schizosaccharomyces pombe pbr1-8.
The nature of series [19]: Inhibition of Beta-1,3-glucan synthase in Schizosaccharomyces pombe pbr1-6.
The test system of series [20] is Aspergillus fumigatus. The series is described as follows: Antifungal activity against Aspergillus fumigatus clinical isolate 293 infected in Hartley guinea pig model of invasive pulmonary aspergillosis assessed as pig median survival time at 10 mg/kg, sc administered until day 8 starting from day 1 post infection. It is filed as functional, Af293. The note with it: time 8 day.

Series [21] concerns Aspergillus fumigatus. The series is described as follows: Antifungal activity against Aspergillus fumigatus clinical isolate 293 infected in Hartley guinea pig model of invasive pulmonary aspergillosis assessed as percent survival of pig at 10 mg/kg, sc administered until day 8 starting from day 1 post infection. In kind it is functional. The note with it: Af293, sc, 192 h, time 8 day.

In series [22] the test system is Candida albicans. The series is described as follows: Antifungal activity against Candida albicans Ca2323/ORF6.945 by CLSI method. It is filed as functional.
For series [23], the system named is Candida albicans. The series is described as follows: Antifungal activity against Candida albicans Ca1055 by CLSI method. It is filed as functional.
The test system of series [24] is Candida parapsilosis. The series is described as follows: Antifungal activity against Candida parapsilosis ATCC22019 by CLSI method. In kind it is functional. The following applies: Lodderomyces parapsilosis.
The next series concerns Clavispora lusitaniae. The series is described as follows: Antifungal activity against Candida lusitaniae MY1396 by CLSI method. It is filed as functional.
Series [25] relates to Nakaseomyces glabratus. The series is described as follows: Antifungal activity against Candida glabrata MY1381 by CLSI method. It is filed as functional.
Series [26] in a line: Elimination half life life in iv dosed human. The following applies: in vivo.
Series [27] has as its system Candida albicans. The series is described as follows: Antifungal activity against Candida albicans CY1002 infected in iv dosed ICR mouse administered as single dose measured on day 7. It is filed as functional. The following applies: 168 h, time 7 day.
The subject of another series is Cryptococcus neoformans. The series is described as follows: Antifungal activity against Cryptococcus neoformans H99 incubated for 72 hrs by CLSI M27A method. In kind it is functional. The following applies: var grubii H99.
Series [28] is described as follows: Inhibition of Cryptococcus neoformans (H99) 1,3-beta-glucan synthase component FKS1 using UDP-[14C]glucose as substrate. Also on record: species or system Cryptococcus neoformans var. grubii H99.
Series [29] has as its system Candida parapsilosis. The series is described as follows: Antifungal activity against Candida parapsilosis incubated for 24 hrs by CLSI method. The following applies: Lodderomyces parapsilosis. In kind it is functional.
In series [30] the test system is Candida tropicalis. The series is described as follows: Antifungal activity against Candida tropicalis incubated for 24 hrs by CLSI method. In kind it is functional.
The test system of series [31] is Candida albicans. The series is described as follows: Antifungal activity against Candida albicans incubated for 24 hrs by CLSI method. In kind it is functional.
In series [32] the test system is Pichia kudriavzevii. The series is described as follows: Antifungal activity against Candida krusei incubated for 24 hrs by CLSI method. In kind it is functional.
Series [33] concerns Nakaseomyces glabratus. The series is described as follows: Antifungal activity against Candida glabrata incubated for 24 hrs by CLSI method. It is filed as functional.
Series [34] deals with Aspergillus fumigatus. The series is described as follows: Antifungal activity against Aspergillus fumigatus CF1083 infected in iv dosed mouse model of pulmonary aspergillosis administered once daily for 4 days and measured on day 14. In kind it is functional. The note with it: 336 h, time 14 day.
The test system of series [35] is Candida albicans. The series is described as follows: Antifungal activity against Candida albicans A9540 infected in iv dosed ICR mouse assessed as protection against fungus-induced lethal infection dosed once immediately following fungal challenge and measured on day 20 post infection. The note with it: 480 h, time 20 day, read-out: PD50. It is filed as functional.

Structures are written as SMILES. Converted amounts (≈) assume the structure as drawn. Numbered stars: 1 amine (or outer) side, 2 acyl side, 3 side chain; on linkers, the order of the positions; unused ones are H or OH. Bridge positions count the residues as written; N and C are the ends. Square brackets hold non-standard residues; d marks the D form. Peptide text beside a SMILES is read from it. * marks the point of attachment. hTyr(3S-OH,4S-OH,3'-OSO3H) = N[C@H](C(=O)O)[C@H](O)[C@@H](O)c1ccc(O)c(OS(=O)(=O)O)c1; pTerphenylCO(4''-OnC5H11) = CCCCCOc1ccc(-c2ccc(-c3ccc(C(=O)*)cc3)cc2)cc1; Orn(4R-OH,5R-OH) = O=C([C@H](C[C@@H](O)[C@@H](O)N[*:3])N[*:1])[*:2]; hTyr(3S-OH,4S-OH) = N[C@H](C(=O)O)[C@H](O)[C@@H](O)c1ccc(O)cc1; Pro(3S-OH,4S-Me) = C[C@H]1CN[C@H](C(=O)O)[C@H]1O; X1 = CCCCCOc1ccc(-c2cc(-c3ccc(C(=O)*)cc3)no2)cc1; Gln(3R-OH) = NC(=O)C[C@@H](O)[C@H](N)C(=O)O; Hyp = O=C(O)[C@@H]1C[C@@H](O)CN1 Bounds are passed on as bounds.

`N[C@H]1C(O)O[C@H](CS(=O)(=O)O)[C@@H](O)[C@@H]1O` (some centres undefined): in series [1], it took 80 µM to reach half-maximal inhibition (IC50). This compound also gave an MIC against Candida albicans [2] of 1000 µg/mL (≈ 4110 µM).
For `CC(=O)N[C@@H](CO)[C@@H](O)[C@H](O)[C@H](O)CS(=O)(=O)O`, in series [3], the IC50 was above 5000 µM. The same compound returned an MIC in the series with Candida albicans [2] of 1000 µg/mL (≈ 3480 µM).
Turning to `COS(=O)(=O)C[C@H]1OC(O)[C@H](NC(C)=O)[C@@H](O)[C@@H]1O` (some centres undefined), the MIC (against Candida albicans [2]; in the series with Nakaseomyces glabratus [4]; in series [5]; against Pichia kudriavzevii [6]) was above 4000 µg/mL in each case.
Regarding `CCC(O)/C=C/C=C\C=C\C(=O)OC[C@H]1O[C@@H](O[C@H]2[C@H](OC(=O)/C=C/C=C/C[C@H](O)/C(C)=C/C=C/CC[C@@H](C)CC)[C@@H](O)[C@@]3(OCc4cc(O)cc(O)c43)O[C@@H]2CO)[C@H](O)[C@@H](O)[C@H]1O` (some centres undefined), the MIC (against Candida albicans [7]; in the series on Candida albicans [8]; against Candida albicans [9]; with Candida albicans [10]; in series [11]; against Candida tropicalis [12]) was 0.1 µg/mL (≈ 0.111 µM) each time. In addition, the MIC against Candida tropicalis [13], with Candida parapsilosis [14], with Candida parapsilosis [15], with Cyberlindnera jadinii and against Pichia kudriavzevii [16] was 0.1 µg/mL (≈ 0.111 µM) each time. For the same compound, the results for the IC50 in [17], in [18] and in series [19] were 0.02 µg/mL (≈ 0.0222 µM), above 250 µg/mL and above 250 µg/mL, respectively.
Turning to `COc1cc(C[C@@H](O)[C@@H]2NC(=O)[C@@H]3C[C@@H](O)CN3C(=O)[C@H]([C@@H](C)O)NC(=O)[C@H](NC[C@H]3CC[C@H](c4nnc(-c5ccc(N6CCC(OC)(C7CCCCC7)CC6)cc5)s4)CC3)C[C@@H](O)CNC(=O)[C@@H]3[C@@H](O)[C@@H](C)CN3C(=O)[C@H]([C@H](O)CCNC(CO)CO)NC2=O)ccc1O`, in the series with Aspergillus fumigatus [20], the Time came out at 9.5 days. Further, the survival at 10 mg/kg in the series on Aspergillus fumigatus [21] stood at 31.2%.
In the case of `COc1ccc(NC(=O)COc2cccc(OCC(C)C)c2)cc1`, the MIC with Candida albicans [22] was determined as 4 µg/mL (≈ 12.1 µM); in the series with Candida albicans [23], 4 µg/mL (≈ 12.1 µM); against Candida parapsilosis [24] it was 2 µg/mL (≈ 6.07 µM); against Clavispora lusitaniae, 4 µg/mL (≈ 12.1 µM); against Nakaseomyces glabratus [25], 4 µg/mL (≈ 12.1 µM).
Turning to `CCCCCOc1ccc(-c2ccc(-c3ccc(C(=O)N[C@H]4C[C@@H](O)[C@@H](O)NC(=O)[C@@H]5[C@@H](O)[C@@H](C)CN5C(=O)[C@H]([C@@H](C)O)NC(=O)[C@H]([C@H](O)[C@@H](O)c5ccc(O)cc5)NC(=O)[C@@H]5C[C@@H](O)CN5C(=O)[C@H]([C@@H](C)O)NC4=O)cc3)cc2)cc1` [ANIDULAFUNGIN] ({pTerphenylCO(4''-OnC5H11)}-[Orn(4R-OH,5R-OH)]T[Hyp][hTyr(3S-OH,4S-OH)]T[Pro(3S-OH,4S-Me)]; lactam 1-C), the half-life in [26] was 24 h. For the same compound, in the series with Candida albicans [27], the ED50 came out at 0.22 mg/kg.
The compound `CC[C@H](C)C[C@H](C)CCCCCCCCC(=O)N[C@H]1C[C@@H](O)[C@@H](NCCN)NC(=O)[C@@H]2[C@@H](O)CCN2C(=O)[C@H]([C@H](O)CCN)NC(=O)[C@H]([C@H](O)[C@@H](O)c2ccc(O)cc2)NC(=O)[C@@H]2C[C@@H](O)CN2C(=O)[C@H]([C@@H](C)O)NC1=O` [CASPOFUNGIN] gave an MIC in the series with Cryptococcus neoformans of 16 µg/mL (≈ 14.6 µM). This compound gave a Ki in [28] of 0.17 µM. The MIC90 against Candida parapsilosis [29] amounted to 0.5 µg/mL (≈ 0.457 µM); in the series on Candida tropicalis [30], 1 µg/mL (≈ 0.915 µM); against Candida albicans [31], 2 µg/mL (≈ 1.83 µM); against Pichia kudriavzevii [32] it was 1 µg/mL (≈ 0.915 µM); in the series with Nakaseomyces glabratus [33], 16 µg/mL (≈ 14.6 µM). Also, the IC50 was 0.3 µg/mL (≈ 0.274 µM) in series [17], 250 µg/mL (≈ 229 µM) in [18] and 150 µg/mL (≈ 137 µM) in [19]. The ED50 with Aspergillus fumigatus [34] is above 15 mg/kg.
In series [26], `CCCCCOc1ccc(-c2cc(-c3ccc(C(=O)N[C@H]4C[C@@H](O)[C@@H](O)NC(=O)[C@@H]5[C@@H](O)[C@@H](C)CN5C(=O)[C@H]([C@H](O)CC(N)=O)NC(=O)[C@H]([C@H](O)[C@@H](O)c5ccc(O)c(OS(=O)(=O)O)c5)NC(=O)[C@@H]5C[C@@H](O)CN5C(=O)[C@H]([C@@H](C)O)NC4=O)cc3)no2)cc1` [MICAFUNGIN] (X1-[Orn(4R-OH,5R-OH)]T[Hyp][hTyr(3S-OH,4S-OH,3'-OSO3H)][Gln(3R-OH)][Pro(3S-OH,4S-Me)]; lactam 1-C) had a half-life of 10 h.
Regarding `CN[C@@H]1[C@H](O[C@@H]2OC[C@@H](O)[C@H](O)[C@H]2O)[C@@H](O)[C@H](O[C@H]2c3cc(C)c(C(=O)N[C@H](C)C(=O)O)c(O)c3-c3c(cc4c(c3O)C(=O)c3cc(OC)cc(O)c3C4=O)[C@@H]2O)O[C@@H]1C` [PRADIMICIN A], in the series with Candida albicans [35], the ED50 was 8.9 mg/kg.
